Measured values from the supplement of paper PMC10307832.

Tests used:
Experiment in all cases: relative viability (nuclei count vs DMSO), 5 days (fraction); higher = more cells survive
AZD6482 = compound: Cc1cc([C@@H](C)Nc2ccccc2C(=O)O)c2nc(N3CCOCC3)cc(=O)n2c1 [AZD6482]
In short: (§1)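 Viability here means nuclei in treated wells divided by nuclei in vehicle wells, reported as the median across plates. Only plates with control CV below 25% and at least one doubling passed. Lung cancer cell lines in 1536-well plates were exposed to five √10-spaced library-drug doses for 5 days and counted from 4× Hoechst images in MetaXpress.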

[1] = compound: COc1cc2nc(N3CCCN(C)CC3)nc(NC3CCN(Cc4ccccc4)CC3)c2cc1OC
In short: as §1

[2] = compound: COc1cc2nc(N3CCCN(C)CC3)nc(NC3CCN(Cc4ccccc4)CC3)c2cc1OC + Cc1nc(NC(=O)N2CCC[C@H]2C(N)=O)sc1-c1ccnc(C(C)(C)C(F)(F)F)c1 [Alpelisib] (partner 2 µM)
In short: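 For relative viability, nuclei counts in treated wells were divided by those in vehicle wells. Lung cancer cell lines had been pin-tool dosed in 1536-well plates the day after seeding and cultured for 5 days, then fixed and stained in one step (final 0.05% Triton X-100, 1% formaldehyde, 1 ug/ml Hoechst) and imaged at 4×. Doses were one drug alone or a fixed anchor-drug dose plus five library-drug doses (not always all listed) in √10 steps, and values are duplicate-plate medians.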

UMC-11
relative viability (AZD6482; 0.08 µM): 0.949 | relative viability (AZD6482; 0.253 µM): 0.94 | relative viability (AZD6482; 0.8 µM): 1.01 | relative viability (AZD6482; 2.53 µM): 0.736 | relative viability (AZD6482; 8 µM): 1.22 | relative viability ([1]; 0.2 µM): 0.998 | relative viability ([1]; 0.6325 µM): 0.973 | relative viability ([1]; 2 µM): 1.06 | relative viability ([1]; 6.325 µM): 0.932 | relative viability ([2]; first compound 0.2 µM): 0.953 | relative viability ([2]; first compound 0.6325 µM): 0.973 | relative viability ([2]; first compound 2 µM): 1.15 | relative viability ([2]; first compound 6.325 µM): 1.01
